# Literature values in patent US20040192601A1, “Lipid binding molecules and methods of use” (priority 2002, published 2004).
# Tested on: PI3K
# Settings: W7 used at 100 μM; stated as a property of the calmodulin inhibitor
structure (smiles),measurement,value
NCCCCCCNS(=O)(=O)c1cccc2c(Cl)cccc12 [W7],Inhibition of PI3K activity,does not inhibit PI3K activity
